Measured values reported in patent US20060211606A1, “Peptides” (priority 2005, published 2006).
Where no end group is shown, it is not given here. [ ]: non-standard residue; d: D form.

Test system: Human Skeletal Muscle Myoblasts (HSMM)
Assay: HSMM proliferation, BrdU incorporation
Type: cell-based
Settings: 48 hours
Procedure: (A) Peptide A5: HSMM cells at 500 cells/well. Cultivation was carried out for 24 hours in 10% FCS, followed by two washes in serum free medium, stimulation for 48 hours and then treatment with BrdU for 5 hours. Concentrations of 0.1, 1, 10, 100 and 500 ng/ml of peptide A5 were tested, along with 0.1, 1, 10 and 100 ng/ml IGF-I. BrdU incorporation was measured to assess the level of cell proliferation achieved. Controls containing medium only, no cells (BLK), background staining (BG) and 10% FBS were also provided. Values on the Y-axis are for fluorescence (absorbence at 370 nm; mean plus standard error across 4 wells). The first five columns relate to peptide A5 at concentrations of 0.1, 1, 10, 100 and 500 ng/ml. The next column relates to the control containing medium only. The next three relate to IGF-I (See Example 1.5) alone at concentrations of 100, 10 and 0.1 ng/ml. The next three relate to controls containing 10% FBS, background staining and no cells respectively. * means P<0.05 compared to medium only control.
(§1) (B) Peptide AS: HSMM cells at 500 cells/well. […] Concentrations of 0.1, 1, 10, 100 and 500 ng/ml of peptide AS in combination with 2 ng/ml IGF-I were tested, along with 0.1, 1, 10 and 100 ng/ml IGF-I. BrdU incorporation was measured to assess the level of cell proliferation achieved. […] Values on the Y-axis are for fluorescence (absorbence at 370 nm; mean plus standard error across 4 wells). […]
as §1, with “(A)” for “(B)”, “AS” for “AS in combination with 2 ng/ml IGF-I”
(B) Peptide A5: HSMM cells at 500 cells/well. […] Concentrations of 0.1, 1, 10, 100 and 500 ng/ml of peptide AS in combination with 2 ng/ml IGF-I were tested, along with 0.1, 1, 10 and 100 ng/ml IGF-I. BrdU incorporation was measured to assess the level of cell proliferation achieved. […]

A5: SEQ ID NO: 15 with D-Arginine at positions 14 and 15, amidated at the C-terminus, not pegylated (YQPPSTNKNTKSQ[dR][dR]KGSTFEEHK-NH2; N-terminus assumed; SMILES C[C@@H](O)[C@H](NC(=O)[C@H](CO)NC(=O)CNC(=O)[C@H](CCCCN)NC(=O)[C@@H](CCCNC(=N)N)NC(=O)[C@@H](CCCNC(=N)N)NC(=O)[C@H](CCC(N)=O)NC(=O)[C@H](CO)NC(=O)[C@H](CCCCN)NC(=O)[C@@H](NC(=O)[C@H](CC(N)=O)NC(=O)[C@H](CCCCN)NC(=O)[C@H](CC(N)=O)NC(=O)[C@@H](NC(=O)[C@H](CO)NC(=O)[C@@H]1CCCN1C(=O)[C@@H]1CCCN1C(=O)[C@H](CCC(N)=O)NC(=O)[C@@H](N)Cc1ccc(O)cc1)[C@@H](C)O)[C@@H](C)O)C(=O)N[C@@H](Cc1ccccc1)C(=O)N[C@@H](CCC(=O)O)C(=O)N[C@@H](CCC(=O)O)C(=O)N[C@@H](Cc1c[nH]cn1)C(=O)N[C@@H](CCCCN)C(N)=O) [Peptide A5]
proliferation of HSMM (BrdU incorporation), with 2 ng/ml IGF-I in the medium (A5 in combination with 2 ng/ml IGF-I, P<0.001): significant effect on the proliferation of HSMM at a higher confidence level | proliferation of HSMM (BrdU incorporation), used in isolation (A5 significant (P<0.1) at doses of 10 ng/ml and below, IGF-I alone 0.1, 10 and 100 ng/ml): significant effect
